From patent publication US20220169639A1 (priority 2018, published 2022)

tested on: HBeAg (surrogate marker for cccDNA) in HepDES19 cells; assay: Engineered HepDES19 primary screen assay (HBeAg ELISA); assay type: cell-based, HBV; conditions: Hepatitis B virus, 120 h, HBeAg in culture supernatant, 5 days incubation, read-out: IC50 (HepDES19 primary screen assay, inhibition of extracellular HBeAg level)
Source text: The assay was employed to screen for cccDNA inhibitors. HepDES19 is a cccDNA-producing cell line. In this cell line, HBeAg in the cell culture supernatant as surrogate marker, as HBeAg production depends on cccDNA level and activity. HepDES19 is an engineered cell line which contains a 1.1 unit length HBV genome, and pgRNA transcription from the transgene is controlled by Tetracycline (Tet). In the absence of Tet, pgRNA transcription will be induced, but HBV e antigen (HBeAg) could not be produced from this pgRNA due to very short leader sequence before the HBeAg start codon and the start codon is disrupted. Only after cccDNA is formed, the missing leader sequence and start codon mutation would be restored from the 3′-terminal redundancy of pgRNA, and then HBeAg could be synthesized. Therefore, HBeAg could be used as a surrogate marker for cccDNA (Zhou, T. et al., Antiviral Res. (2006), 72(2), 116-124; Guo, H. et al., J. Virol. (2007), 81(22), 12472-12484).
HepDES19 cells were seeded at 2×10^6 cells per T150 flask and cultured with the culture medium (Dulbecco's Modified Eagle Medium: Nutrient Mixture F-12 [DMEM-F12, Gibco Cat. 11320-82], 10% Fetal Bovine Serum [FBS, Clontech Cat. 631101], 0.1 mM Non-Essential Amino Acids Solution [NEAA, Gibco Cat. 11140-050], 50 μg/mL Penicillin-Streptomycin [PS, Invitrogen Cat. 15140-163], 500 μg/mL Geneticin [G418, Invitrogen Cat. 10131-027]) containing 3 μg/mL Tet (Sigma, Cat. 87128) for 5 days. Cells were then seeded at 4×10^6 cells per T150 in the same culture medium as described above in the absence of Tet for 8 days. Cells were then harvested and frozen at density of 2×10^6 cells per mL. For compound testing, the frozen cells were thawed and seeded into 96-well plates at a density of 6×10^4 cells per well. At 24 hours after seeding, half log serial dilutions of compounds made with Dimethyl sulfoxide (DMSO, Sigma, Cat. D2650) were further diluted with the same culture medium as described above before they were added to the cells to reach desired final compound concentrations and 1% DMSO concentration. Plates were then incubated at 37° C. for another 5 days before measurement of HBeAg level and cell viability. Intracellular HBeAg level were measured with enzyme-linked immunosorbent assay (ELISA) kit (Shanghai Kehua Diagnostic Medical Products Co., Ltd). Cell viability was assessed using Cell Counting Kit-8 (DonJindo, Cat. CK04-20). IC50 values were derived from the dose-response curve using 4 parameter logistic curve fit method.
The compounds of the present invention were tested for their capacity to inhibit extracellular HBeAg level as described herein.

Structure (SMILES) | IC50 [nM]
NS(=O)(=O)NCCOc1cc(C(F)(F)F)ccc1-c1cc(=O)c2cccc(Cl)c2o1 [Example 159, 8-chloro-4-oxo-2-[2-[2-(sulfamoylamino)ethoxy]-4-(trifluoromethyl)phenyl]chromene] | 830
COC(=O)NCCOc1cc(Br)ccc1-c1cc(=O)c2cccc(Cl)c2o1 [Example 105] | 1900
O=C(O)CCNCCOc1cc(C(F)(F)F)ccc1-c1cc(=O)c2cccc(Cl)c2o1 [Example 124] | 5880
O=C(O)[C@H]1CCCN1CCOc1ccccc1-c1cc(=O)c2cccc(Cl)c2o1 [Example 030, (2R)-1-[2-[2-(8-chloro-4-oxo-chromen-2-yl)phenoxy]ethyl]pyrrolidine-2-carboxylic acid] | 1330
Cc1ccc(-c2cc(=O)c3cccc(Cl)c3o2)c(OCCNC2CC(C(=O)O)C2)c1 (stereo not drawn) [Example 053, 3-[2-[2-(8-chloro-4-oxo-chromen-2-yl)-5-methyl-phenoxy]ethylamino]cyclobutanecarboxylic acid] | 100
O=C(O)C1CN(CCOc2cc(C(F)(F)F)ccc2-c2cc(=O)c3cccc(Cl)c3o2)CCO1 (stereo not drawn) [Example 035, 4-[2-[2-(8-chloro-4-oxo-chromen-2-yl)-5-(trifluoromethyl)phenoxy]ethyl]morpholine-2-carboxylic acid] | 2380
Cc1cc(-c2cc(=O)c3cccc(Cl)c3o2)c(OCCN2CCC[C@H]2C(=O)O)cc1Cl [Example 045] | 6500
O=C(O)C(=O)NCCOc1cc(Br)ccc1-c1cc(=O)c2cccc(Cl)c2o1 [Example 113] | 490
CCOC(=O)C(=O)N(C)CCOc1cc(C)ccc1-c1cc(=O)c2cccc(Cl)c2o1 [Example 137, ethyl 2-[2-[2-(8-chloro-4-oxo-chromen-2-yl)-5-methyl-phenoxy]ethyl-methyl-amino]-2-oxo-acetate] | 3400
CC(CC(=O)O)NCCCOc1cc(C(F)(F)F)ccc1-c1cc(=O)c2cccc(Cl)c2o1 (stereo not drawn) [Example 062, 3-[3-[2-(8-chloro-4-oxo-chromen-2-yl)-5-(trifluoromethyl)phenoxy]propylamino]butanoic acid] | 2020
COc1ccc(-c2cc(=O)c3cccc(Cl)c3o2)c(OCCNC(=O)C(N)=O)c1 [Example 147, N′-[2-[2-(8-chloro-4-oxo-chromen-2-yl)-5-methoxy-phenoxy]ethyl]oxamide] | 1200
O=C(O)c1cccc(CN2CCC(Oc3cc(Br)ccc3-c3cc(=O)c4cccc(Cl)c4o3)CC2)c1 [Example 128] | 270
O=C(O)C(=O)N1CC[C@@H](Oc2cc(C(F)(F)F)ccc2-c2cc(=O)c3cccc(Cl)c3o2)C1 [Example 130] | 4820
O=C(O)C1CCN(CCOc2ccccc2-c2cc(=O)c3cccc(Cl)c3o2)C1 (stereo not drawn) [Example 031, 1-[2-[2-(8-chloro-4-oxo-chromen-2-yl)phenoxy]ethyl]pyrrolidine-3-carboxylic acid] | 170
Cc1ccc(S(=O)(=O)NC(=O)NCCOc2cc(C(F)(F)F)ccc2-c2cc(=O)c3cccc(Cl)c3o2)cc1 [Example 158, 1-[2-[2-(8-chloro-4-oxo-chromen-2-yl)-5-(trifluoromethyl)phenoxy]ethyl]-3-(p-tolylsulfonyl)urea] | 8350
CC(C)[C@H](NCCOc1cc(C(F)(F)F)ccc1-c1cc(=O)c2cccc(Cl)c2o1)C(=O)O [Example 037, (2S)-2-[2-[2-(8-chloro-4-oxo-chromen-2-yl)-5-(trifluoromethyl)phenoxy]ethylamino]-3-methyl-butanoic acid] | 4120
O=C(O)C(=O)N1CCC(Oc2cc(C(F)(F)F)ccc2-c2cc(=O)c3cccc(Cl)c3o2)CC1 [Example 129] | 4750
COc1cc(OCCOCCN2CC[C@@H](C(=O)O)C2)c(-c2cc(=O)c3cccc(Cl)c3o2)cc1C [Example 050, (3R)-1-[2-[2-[2-(8-chloro-4-oxo-chromen-2-yl)-5-methoxy-4-methyl-phenoxy]ethoxy]ethyl]pyrrolidine-3-carboxylic acid] | 6930
